Test results reported in patent US4073941A, “Aralkyl amides having antidepressive activity” (priority 1975, dated 1978).
In brackets after ≈: the same amount, converted by molar mass. Where a name gives a salt, the structure may show the parent alone. Read-outs that look alike come from different tables or passages of the source.

What was measured:
[1] = tested on: uptake of 3H-NA (noradrenaline) in brain slices; experiment: Inhibition of the uptake of 3H-noradrenaline in midbrain slices after in vivo i.p. administration to mice; conditions: Mus musculus, ip, 0.5 h; dose producing 50 percent decrease of active uptake (ED50); i.p. half an hour before killing; 1-noradrenaline 1×10^-7 M
Experimental: (§1) 1. Inhibition of the uptake of carbon-14 5-HT and tritiated noradrenaline in vitro and in vivo
(§2) The method is described by Ross, Renyi and Ogren in European Journal of Pharmacology 17 (1972), 107-112. […] In the in vitro experiments different concentrations of the test compound were added to the incubation medium. In the in vivo experiments different doses of the test drug were administered intraperitoneally half an hour before the animals were killed. The incubation performance was the same in the two types of experiments, i.e. the midbrain was taken out and sliced and incubated in a mixture consisting of, per 100 mg of brain slices, 0.2 n-mole of ^14 C-5-HT, 0.2 n-mole of ^3 H-NA and 11 μmole of glucose in 2 ml of Krebs-Henseleit buffer, pH 7.4. The incubation time was 5 minutes. The radioactive amines taken up in the slices were dissolved in Soluene-350® (Packard) and the amounts were determined with the double labelling technique by liquid scintillation. The concentration or dose producing 50 percent decrease of the active uptake (ED50) was determined graphically from dose-response curves. Active uptake is defined as that part of the radioactive uptake which is inhibited by a high concentration of cocaine. All doses were given at least to four animals.

[2] = tested on: 5-HTP induced behavioural syndrome in mice; experiment: 5-HTP response potentiation test; type: in vivo; conditions: Mus musculus, least dose producing maximal score (+3) in all animals, before dl-5-HTP 90 mg/kg i.v.
Experimental: 1. 5-HTP response potentiation test
Inhibition of the uptake of 5-HT potentiates the effects of administered 5-hydroxytryptophan (5-HTP) probably by increasing the amount of 5-HT at the receptor. Three mice are given the test drugs 1 hour (or 4, 24 hours) before d1-5-HTP 90 mg/kg i.v. 5-HTP alone gives only a weak behavioural syndrome but in pretreated mice there is seen a characteristic behavioural syndrome, which comes within 5 minutes: tremor, lordosis, abduction of the hindlegs, head-twiches. The strength of the syndrome is scored from 0 to +3. Each group consists of 3 animals and at least 4 groups were tested at 25 mg/kg i.p. Control groups receiving imipramine (Tofranil®) are used as reference, since imipramine constantly potentiated d1-5-HTP. The least dose of the test compound producing maximal score (+3) in all animals is estimated from a logarithmic dose-response curve, and is denoted "effective dose" in the following Table.

[3] = tested on: uptake of 14C-5-HT (5-hydroxytryptamine) in brain slices; experiment: Inhibition of the uptake of 14C-5-HT in midbrain slices after in vivo i.p. administration to mice; conditions: Mus musculus, ip, 0.5 h; dose producing 50 percent decrease of active uptake (ED50); i.p. half an hour before killing; 5-HT 1×10^-7 M
Experimental: as §1, §2

[4] = tested on: uptake of 3H-NA (noradrenaline) in brain slices; experiment: Inhibition of the uptake of 3H-noradrenaline in mouse midbrain slices, compound added in vitro; type: cell-based, mice; conditions: 5 min, read-out: Inhibition (50 %) of uptake in vitro NA
Experimental: as §1
(§3) The method is described by Ross, Renyi and Ogren in European Journal of Pharmacology 17 (1972), 107-112. Tricyclic antidepressant drugs of type imipramine added in vitro or given in vivo to mice decrease the uptake of ^14 C-5-HT and ^3 H-NA in vitro. In the in vitro experiments different concentrations of the test compound were added to the incubation medium. In the in vivo experiments different doses of the test drug were administered intraperitoneally half an hour before the animals were killed. The incubation performance was the same in the two types of experiments, i.e. the midbrain was taken out and sliced and incubated in a mixture consisting of, per 100 mg of brain slices, 0.2 n-mole of ^14 C-5-HT, 0.2 n-mole of ^3 H-NA and 11 μmole of glucose in 2 ml of Krebs-Henseleit buffer, pH 7.4. The incubation time was 5 minutes. The radioactive amines taken up in the slices were dissolved in Soluene-350® (Packard) and the amounts were determined with the double labelling technique by liquid scintillation. The concentration or dose producing 50 percent decrease of the active uptake (ED50) was determined graphically from dose-response curves. Active uptake is defined as that part of the radioactive uptake which is inhibited by a high concentration of cocaine. […]

[5] = tested on: uptake of 14C-5-HT (5-hydroxytryptamine) in brain slices; experiment: Inhibition of the uptake of 14C-5-HT in mouse midbrain slices, compound added in vitro; type: cell-based, mice; conditions: 5 min, concentration producing 50 percent decrease of active uptake (ED50), 5-HT 1×10^-7 M, 5 min incubation
Experimental: as §1, §3

Compound	ED50 [1] [mg/kg]	minimal effective dose [2] [mg/kg]	ED50 [3] [mg/kg]	IC50 ([4]; concentration producing 50 percent decrease of active uptake (ED50), 1-noradrenaline 1×10^-7 M, mouse midbrain slices, 5 min incubation) [µg/mL]	IC50 [5] [µg/mL]	IC50 ([4]; Mus musculus) [µg/mL]
CN(C)CCCN1c2ccccc2CCc2ccccc21 [Imipramine, imipramine]	6	15	24	0.06 (≈ 0.214 µM)	0.1 (≈ 0.357 µM)	–
CC(N)C(=O)NC(C)(C)Cc1ccc(Cl)cc1 (stereo not shown) [GEA 609, 2-amino-N^1 - 3-(4-chlorophenyl)-2-methyl-2-propyl! propanoic acid amide hydrochloride]	> 40	0.5	20	–	0.7	> 10
